The source of these data is ChEMBL document CHEMBL5143655, “Synthesis and biological evaluation of 1,2,4-triazole derivatives as potential Nrf2 activators for the treatment of cerebral ischemic injury” (Eur J Med Chem, 2022).

The test system of series [1] is Rattus norvegicus. In words: Neuroprotective activity in Sprague-Dawley rat model of middle cerebral artery occlusion-induced ischemia-reperfusion injury assessed as decrease in cerebral infarct volume at 30 mg/kg, ip preincubated for 1 hrs followed by MCAO operation and further incubated with compound for 4 hrs after reperfusion by TTC staining based assay. The format is functional. Further details: scale not given: the % may be the effect or the level left. The conditions noted are these: time 5 hrs.

For series [2], the system named is Rattus norvegicus. Nature of the series: Neuroprotective activity in Sprague-Dawley rat model of middle cerebral artery occlusion-induced ischemia-reperfusion injury assessed as decrease in cerebral infarct volume at 3 mg/kg, ip preincubated for 1 hrs followed by MCAO operation and further incubated with compound for 4 hrs after reperfusion by TTC staining based assay. The format is functional. Further details: scale not given: the % may be the effect or the level left. The following applies: time 5 hrs.

Series [3] is described as follows: Plasma protein binding in Sprague-Dawley rat plasma at 10 uM incubated for 6 hrs by LC-MS/MS based equilibrium dialysis method. Format: ADME, cell-free. The conditions noted are these: read-out: PPB (converted).
Series [4] relates to PC-12. In words: Neuroprotective activity against SNP-induced apoptotic rat PC-12 cells assessed as restoration of cell number at 10 uM preincubated for 2 hrs followed by SNP stimulation for 24 hrs by Hoechst 33258 staining based fluorescence microscopic analysis. Format: functional.
Series [5] deals with PC-12. In words: Neuroprotective activity against SNP induced rat PC-12 cells assessed as increase in cell viability at 1 uM preincubated for 2 hrs followed by SNP stimulation for 24 hrs by MTT assay relative to control. The format is functional.
Series [6] has as its system Rattus norvegicus. Nature of the series: Neuroprotective activity in Sprague-Dawley rat model of middle cerebral artery occlusion-induced ischemia-reperfusion injury assessed as attenuation of behavioral deficit at 10 mg/kg, ip preincubated for 1 hrs followed by MCAO operation and further incubated with compound for 4 hrs after reperfusion. The format is functional. The following applies: time 5 hrs.

Series [7] deals with Voltage-gated inwardly rectifying potassium channel KCNH2 (Homo sapiens, UniProt Q12809). Nature of the series: Inhibition of hERG channel expressed in HEK293 cells at -80 mV holding potential by automated patch clamp method. The format is toxicity, cell-based.
Voltage-gated inwardly rectifying potassium channel KCNH2, sequence (Q12809 whole entry): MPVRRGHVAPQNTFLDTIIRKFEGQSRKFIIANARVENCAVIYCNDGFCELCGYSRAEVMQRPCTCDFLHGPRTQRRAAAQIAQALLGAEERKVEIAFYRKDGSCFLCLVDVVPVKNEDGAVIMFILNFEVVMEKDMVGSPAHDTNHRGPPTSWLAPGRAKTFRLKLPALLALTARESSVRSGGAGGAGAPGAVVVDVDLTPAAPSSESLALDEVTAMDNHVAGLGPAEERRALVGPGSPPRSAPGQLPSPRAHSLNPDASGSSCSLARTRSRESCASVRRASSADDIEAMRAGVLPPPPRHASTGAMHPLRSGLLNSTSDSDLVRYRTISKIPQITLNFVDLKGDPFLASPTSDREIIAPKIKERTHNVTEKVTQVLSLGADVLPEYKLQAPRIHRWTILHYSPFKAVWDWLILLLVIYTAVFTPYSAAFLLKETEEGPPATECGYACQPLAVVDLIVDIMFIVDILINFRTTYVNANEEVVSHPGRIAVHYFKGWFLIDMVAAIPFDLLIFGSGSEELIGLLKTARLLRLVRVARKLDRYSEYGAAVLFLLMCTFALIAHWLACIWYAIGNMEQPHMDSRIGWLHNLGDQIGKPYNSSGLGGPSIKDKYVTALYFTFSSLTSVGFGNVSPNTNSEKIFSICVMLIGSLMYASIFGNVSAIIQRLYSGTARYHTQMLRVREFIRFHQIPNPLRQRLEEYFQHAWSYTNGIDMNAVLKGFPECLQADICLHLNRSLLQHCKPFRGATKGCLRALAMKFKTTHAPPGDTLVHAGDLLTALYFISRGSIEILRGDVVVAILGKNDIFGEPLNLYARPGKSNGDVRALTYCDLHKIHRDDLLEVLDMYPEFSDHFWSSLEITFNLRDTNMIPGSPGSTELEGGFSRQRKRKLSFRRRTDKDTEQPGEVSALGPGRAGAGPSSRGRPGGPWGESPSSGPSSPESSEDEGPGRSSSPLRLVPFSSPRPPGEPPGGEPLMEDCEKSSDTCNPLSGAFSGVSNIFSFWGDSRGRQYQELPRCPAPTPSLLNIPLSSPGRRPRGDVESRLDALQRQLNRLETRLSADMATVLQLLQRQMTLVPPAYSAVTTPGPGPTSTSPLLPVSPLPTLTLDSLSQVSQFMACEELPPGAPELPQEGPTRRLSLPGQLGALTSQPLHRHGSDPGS
The test system of series [8] is PC-12. In words: Neuroprotective activity against SNP-induced oxidative stress in rat PC-12 cells assessed as inhibition of ROS accumulation at 10 uM preincubated for 2 hrs followed by SNP stimulation for 24 hrs by DCFH-DA staining based fluorescence microscopic analysis. Format: functional, cell-based.
A short description of series [9]: Bioavailability in Sprague-Dawley rat at 5 mg/kg, ip measured upto 24 hrs by LC-MS/MS analysis. Format: ADME, organism-based. The conditions noted are these: in vivo.
Series [10] in a line: Clearence in Sprague-Dawley rat at 5 mg/kg, iv measured upto 24 hrs by LC-MS/MS analysis. The format is ADME, organism-based. The following applies: in vivo.
Series [11] has as its target T1, Nuclear factor erythroid 2-related factor 2 (Rattus norvegicus) (UniProt O54968).
T1 sequence (whole entry): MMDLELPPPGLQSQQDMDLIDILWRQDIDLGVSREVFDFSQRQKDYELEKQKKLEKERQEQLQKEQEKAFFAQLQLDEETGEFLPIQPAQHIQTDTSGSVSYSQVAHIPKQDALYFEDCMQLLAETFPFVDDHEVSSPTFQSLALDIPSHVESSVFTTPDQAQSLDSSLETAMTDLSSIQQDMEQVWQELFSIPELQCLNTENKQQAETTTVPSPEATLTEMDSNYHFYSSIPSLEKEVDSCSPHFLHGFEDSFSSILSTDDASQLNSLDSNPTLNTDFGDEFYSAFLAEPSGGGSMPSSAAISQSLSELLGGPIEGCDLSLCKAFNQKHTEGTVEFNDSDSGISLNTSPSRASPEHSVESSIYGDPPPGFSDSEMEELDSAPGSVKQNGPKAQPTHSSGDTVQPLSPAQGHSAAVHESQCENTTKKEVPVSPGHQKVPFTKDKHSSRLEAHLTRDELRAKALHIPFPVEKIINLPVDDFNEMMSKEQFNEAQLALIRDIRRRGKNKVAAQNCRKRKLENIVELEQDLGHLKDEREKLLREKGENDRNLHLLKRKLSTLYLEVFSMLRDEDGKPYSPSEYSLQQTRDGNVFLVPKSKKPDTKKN
Nature of the series: Activation of Nrf2 pathway in rat PC-12 cells assessed as increase in HO-1 level at 2.5 to 10 uM measured after 3 hrs by Western blot analysis. The following applies: filed as activator, dose 2.5-10 µM. Format: cell-based.

Series [12] is described as follows: Cmax in Sprague-Dawley rat at 5 mg/kg, ip measured at 2 hrs by LC-MS/MS analysis. More on the design: dose 5 mg/kg, time 2 hrs, route ip. Format: ADME, organism-based. The conditions noted are these: in vivo.
In series [13] the test system is PC-12. In words: Neuroprotective activity against SNP induced rat PC-12 cells assessed as increase in cell viability at 5 uM preincubated for 2 hrs followed by SNP stimulation for 24 hrs by MTT assay relative to control. Format: functional.
Series [14] is described as follows: AUC (0 to infinity) in Sprague-Dawley rat at 5 mg/kg, iv measured upto 24 hrs by LC-MS/MS analysis. Format: ADME, organism-based. More on the design: dose 5 mg/kg, time < 24 hrs, route iv. The following applies: in vivo.
For series [15], the target named is T1, Nuclear factor erythroid 2-related factor 2 (Rattus norvegicus). In words: Activation of Nrf2 pathway in rat PC-12 cells assessed as decrease in Nrf2 accumulation in cytoplasm at 0.5 to 10 uM measured after 3 hrs by Western blot analysis. The format is cell-based. The conditions noted are these: filed as activator, dose 0.5-10 µM.
Series [16] can be described thus: Cmax in Sprague-Dawley rat at 5 mg/kg, iv measured upto 24 hrs by LC-MS/MS analysis. Format: ADME, organism-based. Further details: dose 5 mg/kg, time < 24 hrs, route iv. The following applies: in vivo.
For series [17], the system named is Rattus norvegicus. Nature of the series: Neuroprotective activity in Sprague-Dawley rat model of middle cerebral artery occlusion-induced ischemia-reperfusion injury assessed as decrease in cerebral infarct volume at 10 mg/kg, ip preincubated for 1 hrs followed by MCAO operation and further incubated with compound for 4 hrs after reperfusion by TTC staining based assay. Format: functional. Further details: scale not given: the % may be the effect or the level left. The following applies: time 5 hrs.

Series [18] has as its target T1, Nuclear factor erythroid 2-related factor 2 (Rattus norvegicus). In words: Activation of Nrf2 pathway in rat PC-12 cells assessed as Nrf2 accumulation in nucleus measured after 3 hrs by Western blot analysis. The conditions noted are these: filed as activator, dose 2.5-10 µM, DDE = dose-dependent effect. The format is cell-based.
A short description of series [19]: AUC (0 to infinity) in Sprague-Dawley rat at 5 mg/kg, ip measured upto 24 hrs by LC-MS/MS analysis. Format: ADME, organism-based. The conditions noted are these: in vivo. More on the design: time < 24 hrs, dose 5 mg/kg, route ip.

Active and inactive are the calls of the source. The calls are words filed in the database; no cut-off is given here.

Take `Cc1cc(C)cc(-n2nc(-c3ccc(C(F)(F)F)cc3O)nc2-c2ccccc2O)c1`: the Activity in the series with Rattus norvegicus [1] is reported as 12.23%; in the series with Rattus norvegicus [2], 16.37%; in the series with PC-12 [5], 76.86%; with Rattus norvegicus [6], 1.6; in the series on PC-12 [13] it was 101.59%; with Rattus norvegicus [17], 14.49%. Moreover, the Activity entry in series [18] was “Dde”. In series [3], the fraction unbound at 6 h, 10 µM is 0.0008. Moreover, the result (with PC-12 [4]; in the series with PC-12 [8]; in series [11]; in series [15]) was Active. This molecule gave an IC50 in series [7] greater than 30 µM. Also, the bioavailability in series [9] came out at 28.8%. Moreover, in series [10], the CL is listed as 0.0005 (mg/kg)/(ng/ml)/hr. In addition, the Cmax amounted to 323 ng/mL in series [12] and 6910 ng/mL in [16]. In addition, the AUC(0-inf) in series [14] stood at 10200 ng·h/mL; in series [19], 2930 ng·h/mL.
